Reference: US7232805B2, “Cobalamin conjugates for anti-tumor therapy” (Inflabloc Pharmaceuticals, Inc., priority 2003, dated 2007)

Legend:
HL-60 cells = assay: CellTiter-Glo Luminescent Cell Viability Assay, HL-60 cells; type: cell-based, human; details: HL-60, 96 hours, 100 μM down to 10 nM, FIG. 6c
Excerpt: (§1) FIGS. 6a-6d depict the results of in vitro assays of the conjugate against four cell lines. FIG. 6A is a chart depicting the results of the conjugate against MCF-7 cells, cells derived from a human breast cancer cell line. FIG. 6B is a chart depicting the results of the conjugate against SK-BR-3 cells, cells derived from a human breast adenocarcinoma cell line. FIG. 6C is a chart depicting the results of the conjugate against HL-60 cells, cells derived from a human promyelocytic leukemia cell line. FIG. 6D is a chart depicting the results of the conjugate against SK-N-MC cells, cells derived from a human brain neuroblastoma (neuroepithelioma) cell line. […]
(§2) After 96 hours, the effects of doxorubicin and B12-S-doxorubicin on cell viability were determined using an assay from Promega. The CellTiter-Glo™ Luminescent Cell Viability Assay quantitates the ATP present in a culture, which correlates with metabolically active cells. Luminescence, which is dependent on ATP concentration, was measured for each individual well on a Wallac MicroBeta® JET Liquid Scintillation and Luminescence Counter. The average luminescence value of the three wells containing medium alone was subtracted from the raw data values to give corrected values. […] The three corrected values for wells dosed with the same concentration of compound were averaged and the standard deviation calculated. […]

[1] = systemic toxicity / MTD of free doxorubicin versus conjugate on a molar basis (separate study); type: in vivo, mice
[2] = tested on: MX-1 human breast carcinoma xenograft; assay: tumor growth delay, MX-1 xenograft, single-cycle dosing (Example 3)
Description: Test articles were administered on the day of pair matching, Day 1.
The upper limit of acceptability is 20% weight loss.

MCF-7 cells = assay: CellTiter-Glo Luminescent Cell Viability Assay, MCF-7 cells; type: cell-based, human; details: MCF-7, 96 hours, 100 μM down to 10 nM, FIG. 6a
Excerpt: as §1, §2

[3] = tested on: normal murine lymph node cells; assay: CellTiter-Glo Luminescent Cell Viability Assay, normal murine lymph node cells; type: cell-based; details: 96 hours, FIG. 7
Excerpt: FIG. 7 is a chart depicting the results of an in vitro assay of the conjugate against normal murine lymph node cells. The assay employed is the CellTiter-Glo™ Luminescent Cell Viability Assay from Promega Corporation, which is recognized in the art as being predictive of the effect of a compound on cell viability. The assay is detailed in Example 8. The method described by Promega Corporation (Technical Bulletin No. 288) was followed with no exceptions.
Doxorubicin and CobalaRubicin-200 stocks and stock solutions, prepared in 5% DMSO in water, were stored at −20° C. and protected from light. […]
as §2, with “calculated. Percent cell viability was calculated by considering the untreated cells as 100% viable.” for “calculated.”

[4] = 32 mg/kg/day x 5 days intravenous
[5] = 32 mg/kg/day x 5 days intravenous, group of 10 mice

## COc1cccc2c1C(=O)c1c(O)c3c(c(O)c1C2=O)C[C@@](O)(C(=O)CO)C[C@@H]3O[C@H]1C[C@H](NC(=O)OCc2ccc(NC(=O)[C@H](CCCCN)NC(=O)[C@H](Cc3ccccc3)NC(=O)CCCCCNC(=O)OC[C@H]3O[C@H](n4cnc5cc(C)c(C)cc54)[C@H](O)[C@@H]3OP(=O)(O)O[C@H](C)CNC(=O)CC[C@@]3(C)C4=C(C)C5=NC(=CC6=NC(=C(C)C7=N[C@@](C)([C@H](N4)[C@@H]3CC(N)=O)[C@@](C)(CC(N)=O)[C@@H]7CCC(N)=O)[C@@](C)(CC(N)=O)[C@@H]6CCC(N)=O)C(C)(C)[C@@H]5CCC(N)=O)cc2)[C@H](O)[C@H](C)O1 [conjugate 13, B12-5′-OCONH(CH2)5CO-Phe-Lys-PABC-Dox]
HL-60 cells
  cell viability versus free doxorubicin: same effectiveness as doxorubicin and is slightly less potent than doxorubicin
[1]; free doxorubicin at the same high molar dose as the conjugate
  lethality at the same high molar dose: not by the doxorubicin conjugate
[1]; molar basis
  dose higher than that of free doxorubicin on a molar basis, still with less systemic toxicity: at least 2.3 time
[2]; [4]
  median time to endpoint (tumor 1.5 gm): 62.1 days
  time to endpoint longer than control: 44.3 days
  treatment or nontreatment related deaths: no treatment or nontreatment related deaths
[2]; 32 mg/kg/day x 5 days intravenous, day 9
  maximum body weight loss: −8.4%
[2]; [5]
  long-term, tumor-free survivors: 4 mice
  mice that developed complete regression: 6 mice
[2]; 32 mg/kg/day x 5 days intravenous, Doxorubicin 3 mg/kg/day
  time to endpoint longer than the Doxorubicin active control: 22.6 days
[2]; 64 mg/kg/day x 5 days intravenous, group terminated on Day 4
  toxicity: severe toxicity
[2]; FIG. 9
  efficacy compared with the free drug (tumor size versus days): much greater efficacy than the free drug
[2]; at about 2-4 weeks after administration, FIG. 9
  change in tumor size: substantial decrease in tumor size
[2]; single-cycle study, FIG. 12a, 2.3-fold increase of doxorubicin
  additional toxicity (body weight) from increased amount of doxorubicin in the conjugate: not associated with additional toxicity
MCF-7 cells
  cell viability versus free doxorubicin: same effectiveness as doxorubicin and is slightly less potent than doxorubicin
[3]
  cell viability versus free doxorubicin: as effective as doxorubicin but shows slightly less potency than doxorubicin
